Here are results for 13 molecules from PubChem BioAssay (NCI).

Test systems include EKVX NSCLC; NCI-H226 lung; KM12 colon; NCI-H460 lung; K-562 leukemia; SK-MEL-28 melanoma; BT-549 breast; SF-295 CNS; HS 578T breast; MALME-3M melanoma.
Common to all, as to experiment: NCI tumour cell line growth inhibition, 48 h

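Assay format: 96-well plates, 48-hour exposure. GI50: concentration for 50% inhibition of growth. TGI is the concentration that stops growth completely.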

As to `CCOC(=O)c1sc(=S)c2c(C(=O)c3ccccc3)c(C(=O)c3ccccc3)sc2c1C(=O)OCC`, the GI50 in the assay on EKVX NSCLC is 4.94 µM; in the assay with NCI-H226 lung, 6.68 µM; in the assay on KM12 colon, 2.44 µM; in the assay on NCI-H460 lung it was 21 µM; in the assay with K-562 leukemia it was 3.21 µM; with SK-MEL-28 melanoma it was 25.3 µM. The figures for the GI50 with BT-549 breast, with SF-295 CNS and in the assay on HS 578T breast were 3.43 µM, 2.86 µM and 3.54 µM, respectively. For the same molecule, the TGI was 52.2 µM in the assay with EKVX NSCLC; more than 100 µM with NCI-H226 lung; 11 µM with KM12 colon; more than 100 µM in the assay with NCI-H460 lung; more than 100 µM in the assay with K-562 leukemia; more than 100 µM with SK-MEL-28 melanoma. Also, the TGI in the assay on BT-549 breast was found to be 12.6 µM; in the assay with SF-295 CNS, 13.5 µM; in the assay with HS 578T breast, 61.1 µM.

For the molecule `CCCCCC(=O)N1c2ccccc2NC2=C(C(=O)CC(c3ccc(OC)c(OC)c3)C2)C1c1ccc(C(F)(F)F)cc1` (centres undefined), the GI50 with NCI-H226 lung, in the assay on KM12 colon, in the assay on NCI-H460 lung, in the assay with K-562 leukemia, with SK-MEL-28 melanoma and in the assay on BT-549 breast was more than 100 µM in each case. Besides, the GI50 in the assay with MALME-3M melanoma, with SF-295 CNS and in the assay on HS 578T breast was more than 100 µM in each case. For the same molecule, the TGI in the assay on NCI-H226 lung, with KM12 colon, in the assay with NCI-H460 lung, in the assay with K-562 leukemia, with SK-MEL-28 melanoma and in the assay on BT-549 breast was more than 100 µM each time. Moreover, the TGI in the assay on MALME-3M melanoma, in the assay with SF-295 CNS and with HS 578T breast was more than 100 µM in each case.

On to `COc1ccc(C2=NNC(c3ccc(-c4ccc(OC)cc4[N+](=O)[O-])o3)C2)cc1` (centres undefined), for which the GI50 with EKVX NSCLC was 18.4 µM; in the assay with KM12 colon it was 27.4 µM; in the assay on NCI-H460 lung, 46.8 µM; with K-562 leukemia it was 36.4 µM; with SK-MEL-28 melanoma, more than 100 µM; in the assay on BT-549 breast, 26.6 µM. For the same molecule, the GI50 in the assay with MALME-3M melanoma is 0.412 µM; in the assay on SF-295 CNS it was 29.5 µM; in the assay on HS 578T breast it was 22.1 µM. Moreover, the TGI is more than 100 µM with EKVX NSCLC; more than 100 µM in the assay on KM12 colon; more than 100 µM with NCI-H460 lung; more than 100 µM in the assay with K-562 leukemia; more than 100 µM with SK-MEL-28 melanoma; 93.5 µM in the assay on BT-549 breast. Besides, the TGI with MALME-3M melanoma is 69.5 µM; with SF-295 CNS, more than 100 µM; with HS 578T breast, 57.5 µM.

On to `COc1ccc(-c2ccc(/C=N/n3cn[nH]c3=S)o2)c([N+](=O)[O-])c1`, for which the GI50 is 75 µM with EKVX NSCLC; 27.2 µM in the assay on KM12 colon; 36.1 µM with NCI-H460 lung; 16.9 µM with K-562 leukemia; 48.6 µM in the assay on SK-MEL-28 melanoma; 30.1 µM in the assay with BT-549 breast. Also, the GI50 in the assay with MALME-3M melanoma is 23.8 µM; with SF-295 CNS, 36 µM; with HS 578T breast it was 30.6 µM. Moreover, the TGI is more than 100 µM with EKVX NSCLC; more than 100 µM with KM12 colon; more than 100 µM in the assay on NCI-H460 lung; 36.9 µM with K-562 leukemia; more than 100 µM with SK-MEL-28 melanoma; more than 100 µM in the assay on BT-549 breast. Moreover, the TGI in the assay with MALME-3M melanoma is more than 100 µM; in the assay on SF-295 CNS, more than 100 µM; in the assay with HS 578T breast it was 85.3 µM.

`COc1ccc(Cl)cc1N1C(=O)C(Cl)=C(Nc2cccc(O)c2)C1=O`: the GI50 was 32.8 µM in the assay with EKVX NSCLC; 28.7 µM in the assay with KM12 colon; 17.9 µM in the assay on NCI-H460 lung; 18.5 µM in the assay with K-562 leukemia; 24.4 µM with SK-MEL-28 melanoma; 11.8 µM in the assay on BT-549 breast. The GI50 with MALME-3M melanoma was 14.5 µM; with SF-295 CNS, 17.1 µM; with HS 578T breast, 15.8 µM. Also, the TGI in the assay with EKVX NSCLC is more than 100 µM; with KM12 colon, more than 100 µM; in the assay on NCI-H460 lung, 48.6 µM; in the assay with K-562 leukemia, 46.2 µM; in the assay on SK-MEL-28 melanoma, 83.8 µM; in the assay with BT-549 breast, 46.2 µM. Besides, the values for the TGI with MALME-3M melanoma, in the assay on SF-295 CNS and in the assay with HS 578T breast were 50.4 µM, 82.9 µM and 46.2 µM, respectively.

With `Nc1cc(N)c2nc(-c3ccccc3)c(Nc3ccc(F)cc3)nc2c1`, the GI50 is 12 µM in the assay with EKVX NSCLC; 17.9 µM with NCI-H226 lung; 12 µM in the assay with KM12 colon; 26.4 µM in the assay on NCI-H460 lung; 4.97 µM in the assay on K-562 leukemia; 20.4 µM in the assay on SK-MEL-28 melanoma. Moreover, the GI50 in the assay with BT-549 breast was 11.9 µM; in the assay on SF-295 CNS, 14.4 µM; in the assay with HS 578T breast it was 19.1 µM. The TGI was 30 µM with EKVX NSCLC; 47.5 µM in the assay on NCI-H226 lung; 29.5 µM in the assay on KM12 colon; more than 100 µM in the assay with NCI-H460 lung; more than 100 µM in the assay on K-562 leukemia; 39.3 µM with SK-MEL-28 melanoma. Moreover, the TGI came out at 27.2 µM with BT-549 breast, 32.4 µM in the assay on SF-295 CNS and 58.8 µM with HS 578T breast.

As for `CC1(C)OC2C(CO)OC(n3ccc(=O)[nH]c3=O)C2O1` (centres undefined), the TGI in the assay with EKVX NSCLC, with NCI-H226 lung, in the assay on NCI-H460 lung, in the assay on K-562 leukemia, in the assay with SK-MEL-28 melanoma and with BT-549 breast was more than 100 µM throughout. In addition, the TGI in the assay with SF-295 CNS and in the assay on HS 578T breast was more than 100 µM in each case.

As to `CCN(CC)CCC(=O)Nc1cccc2c1C(=O)c1c(c(O)c3ccccc3c1O)C2=O`, the GI50 with NCI-H226 lung was 17.1 µM; with KM12 colon, 21.5 µM; in the assay on NCI-H460 lung, 13.3 µM; with K-562 leukemia, 2.67 µM; in the assay with SK-MEL-28 melanoma, 3.65 µM; in the assay on BT-549 breast, 19.5 µM. Also, the GI50 is 26.9 µM with MALME-3M melanoma, 12.8 µM in the assay on SF-295 CNS and 16.2 µM in the assay on HS 578T breast. The TGI in the assay on NCI-H226 lung is more than 100 µM; in the assay with KM12 colon, more than 100 µM; in the assay with NCI-H460 lung, 81.3 µM; in the assay with K-562 leukemia, 13.8 µM; with SK-MEL-28 melanoma, 14.4 µM; in the assay on BT-549 breast it was 52.3 µM. Moreover, the TGI in the assay with MALME-3M melanoma was 88.7 µM; in the assay on SF-295 CNS, more than 100 µM; in the assay on HS 578T breast, more than 100 µM.

For `N#C/C(=C\c1cn(-c2ccccc2)c2ccccc12)C(=O)O`, the GI50 in the assay with EKVX NSCLC is 34.2 µM; in the assay with KM12 colon, 30.1 µM; with NCI-H460 lung, 30 µM; with K-562 leukemia, 71.7 µM; in the assay with SK-MEL-28 melanoma, 33.9 µM; with BT-549 breast, 36.6 µM. The GI50 in the assay with MALME-3M melanoma was more than 100 µM; in the assay with SF-295 CNS, 28.1 µM; in the assay on HS 578T breast it was 32.2 µM. Further, the TGI in the assay on EKVX NSCLC, in the assay with KM12 colon, in the assay on NCI-H460 lung, with K-562 leukemia, in the assay with SK-MEL-28 melanoma and in the assay on BT-549 breast was more than 100 µM each time. Also, the TGI in the assay on MALME-3M melanoma, in the assay on SF-295 CNS and in the assay with HS 578T breast was more than 100 µM each time.

Take `CCCCCCN1C(=O)/C(=c2\sc3n(c2=O)C2C(NN=3)N(CC)C(=O)N2CC)c2ccccc21` (centres undefined): the GI50 is 2.84 µM in the assay with EKVX NSCLC; 1.46 µM in the assay with KM12 colon; 1.89 µM in the assay with K-562 leukemia; 2.09 µM with SK-MEL-28 melanoma; 6.34 µM in the assay on BT-549 breast; 1.45 µM in the assay on SF-295 CNS. Further, the GI50 in the assay with HS 578T breast was 1.12 µM. Moreover, the TGI with EKVX NSCLC, with KM12 colon, in the assay on K-562 leukemia, in the assay with SK-MEL-28 melanoma, with BT-549 breast and in the assay on SF-295 CNS was more than 50 µM in each case. In addition, the TGI in the assay on HS 578T breast was found to be 3.28 µM.

For the molecule `CCOC(=O)c1cc2c(cc1Cl)SC(N(c1ccc(F)cc1)S(=O)(=O)c1ccc(OC)cc1)=NS2(=O)=O`, the GI50 in the assay with EKVX NSCLC was 21.2 µM; in the assay with NCI-H226 lung, 29.8 µM; with KM12 colon it was 22.8 µM; in the assay on NCI-H460 lung, 17 µM; in the assay with K-562 leukemia, 14.2 µM; with SK-MEL-28 melanoma, 14.1 µM. Besides, the GI50 in the assay with MALME-3M melanoma was 14.9 µM; with SF-295 CNS, 25.7 µM; in the assay on HS 578T breast, 20.7 µM. For the same molecule, the TGI with EKVX NSCLC was 51.8 µM; in the assay with NCI-H226 lung, more than 100 µM; in the assay on KM12 colon it was 63.9 µM; in the assay on NCI-H460 lung, 36.2 µM; with K-562 leukemia, 31.1 µM; in the assay with SK-MEL-28 melanoma, 29 µM. Moreover, the TGI was 32.8 µM with MALME-3M melanoma, 74.8 µM in the assay with SF-295 CNS and 51.3 µM with HS 578T breast.

Consider `CC1(C)CCSC(/C=C/c2ccccc2)=N1`, for which the TGI is 63.7 µM with EKVX NSCLC; 26.1 µM in the assay on KM12 colon; 24.6 µM in the assay with NCI-H460 lung; more than 100 µM in the assay with K-562 leukemia; 43 µM in the assay with SK-MEL-28 melanoma; 22 µM in the assay with BT-549 breast. Moreover, the figures for the TGI in the assay on MALME-3M melanoma, in the assay on SF-295 CNS and with HS 578T breast were 25.6 µM, 40.7 µM and more than 100 µM, respectively.

`Cn1c2ccccc2c2c(=O)n(CCCC(=O)NCC(=O)OC(=NC3CCCCC3)NC3CCCCC3)c3c(-c4ccccc4)nnn3c21`: the GI50 with NCI-H226 lung is 40 µM; with KM12 colon, 31.3 µM; in the assay on NCI-H460 lung, 32 µM; in the assay on K-562 leukemia it was 23 µM; in the assay on BT-549 breast, 27 µM; with MALME-3M melanoma, 47.2 µM. The GI50 in the assay on SF-295 CNS is more than 100 µM; in the assay with HS 578T breast, 9.43 µM. The TGI with NCI-H226 lung, in the assay with KM12 colon, in the assay on NCI-H460 lung, with K-562 leukemia, in the assay on BT-549 breast and with MALME-3M melanoma was more than 100 µM throughout. For the same molecule, the TGI in the assay with SF-295 CNS and in the assay on HS 578T breast was more than 100 µM in each case.
